Results taken from patent publication US8022090B2, “Vitamin C composition stabilized with cationic material, anionic material and caffeic acid derivative” (The Faceshop Korea Co., Ltd, priority 2007, dated 2011).

Experiment: solubility measurement in purified water and ethanol
Conditions: for solubility: ethanol (25° C.); for density up to which dissolved: 25° C.

solubility (density 1 mg/mL): dissolved
solubility (density 10 mg/mL): dissolved
density up to which dissolved (ethanol): ≥ 10 mg/mL
density up to which dissolved (purified water): not dissolved
SMILES: O=C(O)/C=C/c1ccc(O)c(O)c1 [caffeic acid]
